Assay results as given in ChEMBL document CHEMBL3045600, “Synthesis and Fungicidal Activities of Phenoxyphenyl Alkoxyiminoacetamide Derivatives” (J Pestic Sci, 1998).

Legend:
Format in all cases: functional
Thanatephorus cucumeris [1] = experiment: Fungicidal activity against Thanatephorus cucumeris assessed as rice sheath blight disease control at 31.3 ppm foliar application for 24 hr before inoculation at 26 +- 2 measured after 5 days by preventive manner
Thanatephorus cucumeris [2] = experiment: Fungicidal activity against Thanatephorus cucumeris assessed as rice sheath blight disease control at 7.8 ppm foliar application for 24 hr before inoculation at 26 +- 2 measured after 5 days by preventive manner
Thanatephorus cucumeris [3] = experiment: Fungicidal activity against Thanatephorus cucumeris assessed as rice sheath blight disease control at 2 ppm foliar application for 24 hr before inoculation at 26 +- 2 measured after 5 days by preventive manner
[4] = tested on: Pseudoperonospora cubensis; experiment: Fungicidal activity against Pseudoperonospora cubensis assessed as cucumber downy mildew disease control at 125 ppm foliar application 24 hr before inoculation on upper surface of leaf by preventive manner
[5] = tested on: Pseudoperonospora cubensis; experiment: Fungicidal activity against Pseudoperonospora cubensis assessed as cucumber downy mildew disease control at 31.3 ppm foliar application 24 hr before inoculation on upper surface of leaf by preventive manner
[6] = tested on: Pseudoperonospora cubensis; experiment: Fungicidal activity against Pseudoperonospora cubensis assessed as cucumber downy mildew disease control at 7.8 ppm foliar application 24 hr before inoculation on upper surface of leaf by preventive manner
[7] = tested on: Pseudoperonospora cubensis; experiment: Fungicidal activity against Pseudoperonospora cubensis assessed as cucumber downy mildew disease control at 2 ppm foliar application 24 hr before inoculation on upper surface of leaf by preventive manner
Podosphaera fuliginea [8] = experiment: Fungicidal activity against Podosphaera fuliginea assessed as cucumber powdery mildew control under greenhouse at 125 ppm foliar application 24 hr before inoculation on upper surface of leaf at 23 +/- 2 degC by preventive manner
Podosphaera fuliginea [9] = experiment: Fungicidal activity against Podosphaera fuliginea assessed as cucumber powdery mildew control under greenhouse at 31.3 ppm foliar application 24 hr before inoculation on upper surface of leaf at 23 +/- 2 degC by preventive manner
Podosphaera fuliginea [10] = experiment: Fungicidal activity against Podosphaera fuliginea assessed as cucumber powdery mildew control under greenhouse at 7.8 ppm foliar application 24 hr before inoculation on upper surface of leaf at 23 +/- 2 degC by preventive manner
Podosphaera fuliginea [11] = experiment: Fungicidal activity against Podosphaera fuliginea assessed as cucumber powdery mildew control under greenhouse at 2 ppm foliar application 24 hr before inoculation on upper surface of leaf at 23 +/- 2 degC by preventive manner
Thanatephorus cucumeris [12] = experiment: Fungicidal activity against Thanatephorus cucumeris assessed as rice sheath blight disease control at 125 ppm foliar application for 24 hr before inoculation at 26 +- 2 measured after 5 days by preventive manner

SMILES | Activity (Thanatephorus cucumeris [1]) [%] | Activity (Thanatephorus cucumeris [2]) [%] | Activity (Thanatephorus cucumeris [3]) [%] | Activity [4] [%] | Activity [5] [%] | Activity [6] [%] | Activity [7] [%] | Activity (Podosphaera fuliginea [8]) [%] | Activity (Podosphaera fuliginea [9]) [%] | Activity (Podosphaera fuliginea [10]) [%] | Activity (Podosphaera fuliginea [11]) [%] | Activity (Thanatephorus cucumeris [12]) [%]
CNC(=O)/C(=N/O)c1ccccc1Oc1ccccc1 | <70 | <70 | <70 | <70 | <70 | <70 | <70 | <70 | <70 | <70 | <70 | <70
CNC(=O)/C(=N/OC(C)C)c1ccccc1Oc1ccccc1 | <70 | <70 | <70 | <70 | <70 | <70 | <70 | <70 | <70 | <70 | <70 | <70
CNC(=O)/C(=N/OC)c1ccccc1CCc1ccccc1 | <70 | <70 | <70 | <70 | <70 | <70 | <70 | 70 | 70 | 70 | 70 | <70
CNC(=O)/C(=N/OC)c1ccc(Oc2ccccc2)cc1 | <70 | <70 | <70 | <70 | <70 | <70 | <70 | 70 | 70 | 70 | 70 | <70
CNC(=O)/C(=N/OC)c1cc(C)ccc1Oc1ccccc1 | 70 | 70 | 70 | 70 | 70 | 70 | 70 | 70 | 70 | 70 | 70 | 70
CCNC(=O)/C(=N/OC)c1ccccc1Oc1ccccc1 | 70 | 70 | 70 | <70 | <70 | <70 | <70 | 70 | 70 | 70 | 70 | 70
CNC(=O)/C(=N/OC)c1cccc(Oc2ccccc2)c1 | 70 | 70 | 70 | <70 | <70 | <70 | <70 | 70 | 70 | 70 | 70 | 70
CNC(=O)/C(=N/OC)c1ccccc1SCc1ccccc1 | 70 | 70 | 70 | 70 | 70 | 70 | 70 | 70 | 70 | 70 | 70 | 70
CNC(=O)/C(=N/OC)c1cc([N+](=O)[O-])ccc1Oc1ccccc1 | <70 | <70 | <70 | <70 | <70 | <70 | <70 | <70 | <70 | <70 | <70 | <70
CNC(=O)/C(=N/OC)c1ccccc1C(=O)Oc1ccccc1 | <70 | <70 | <70 | <70 | <70 | <70 | <70 | 70 | 70 | 70 | 70 | <70
CNC(=O)/C(=N/OC)c1cc(F)ccc1Oc1ccccc1 | 70 | 70 | 70 | 70 | 70 | 70 | 70 | 70 | 70 | 70 | 70 | 70
CNC(=O)/C(=N/OC)c1ccccc1NCc1ccccc1 | <70 | <70 | <70 | <70 | <70 | <70 | <70 | <70 | <70 | <70 | <70 | <70
CNC(=O)/C(=N/OC)c1ccccc1/C=C\c1ccccc1 | 70 | 70 | 70 | 70 | 70 | 70 | 70 | 70 | 70 | 70 | 70 | 70
CO/N=C(/C(=O)N(C)C)c1ccccc1Oc1ccccc1 | 70 | 70 | 70 | <70 | <70 | <70 | <70 | 70 | 70 | 70 | 70 | 70
CO/N=C(/C(N)=O)c1ccccc1Oc1ccccc1 | <70 | <70 | <70 | <70 | <70 | <70 | <70 |  |  |  |  | <70
CNC(=O)/C(=N/OC)c1ccccc1C(=O)c1ccccc1 | <70 | <70 | <70 | <70 | <70 | <70 | <70 | <70 | <70 | <70 | <70 | <70
CCO/N=C(/C(=O)NC)c1ccccc1Oc1ccccc1 | <70 | <70 | <70 | <70 | <70 | <70 | <70 | 70 | 70 | 70 | 70 | <70
CNC(=O)/C(=N/OC)c1ccccc1Sc1ccccc1 | 70 | 70 | 70 | 70 | 70 | 70 | 70 | 70 | 70 | 70 | 70 | 70
